{
  "source": "patent US20240366535A1",
  "about": "“FORMULATION WITH IMPROVED BIOAVAILABILITY” (MERRY LIFE BIOMEDICAL COMPANY, LTD., priority 2023, published 2024)",
  "key": {"[1]": {"test": "Pharmacokinetics (PK) studies in rats, single oral dose", "format": "in vivo", "conditions": "male, Sprague-Dawley, TML-6 in rat plasma, 25.0 mg/kg single dose, 0.5% MC suspension", "method": "The objective of this study is to obtain the pharmacokinetic profiles of TML-6 API (unformulated, crystalline), TML-6 formulation E02 (crystalline) and TML-6 formulations E10, E12 and E13 (amorphous) though oral (PO) doses when administrated to 6-8 week old male Sprague-Dawley rats (BioLASCO Taiwan Co. Ltd). A study design of five doses on rats. Animals received a single dose of TML-6 API, TML-6 formulations E02, E10, E12 and E13 at 25 mg/kg via oral gavage.\nDosing Solution Preparation: The TML-6 API, E02, E10, E12 and E13 oral formulations were prepared by suspending these TML6 formulated powder in the aqueous vehicle composed of 0.5% methylcellulose (MC) to the concentration of 2.5 mg/mL TML-6, respectively.\nPlasma Sample Preparation and Bioanalysis Serial blood samples were collected from all animals through the tail veins. Approximately 0.2 mL blood samples were collected at each following time points: predose and 0.083, 0.25, 0.5, 1, 2, 4, 6, 8, 10 and 24 hours post-dose. Separation of plasma was prepared by centrifugation (1,000×g for 15 minutes at 4° C.) after blood sampling. Concentrations of TML-6 in rat plasma were determined by liquid chromatography-tandem mass spectrometry (LC-MS/MS), as shown in FIGS. 6 and 7. The lower limit of quantification (LLOQ) was 0.1 ng/mL. […]"}, "[2]": {"test": "Dissolution test in medium simulating gastric juice (0.1N HCl), 30 min", "format": "physicochemical", "conditions": "Medium 0.1N HCl", "method": "(§1) Dissolution Test in 0.1 HCl and pH 6.8 Phosphate Buffer, 30 Min\n(§2) The dissolution of TML-6 (API alone) and TML-6 formulations (E01 to E12) were measured in mediums simulating gastric juice for 30 mins, and the results are as shown in Table 5 and 6. The dissolution of TML-6 (API alone) and TML-6 formulations (E13 to E17) were measured in mediums simulating intestinal juice for 30 mins, and the results are as shown in Table 6."}, "[3]": {"test": "Dissolution test in medium simulating intestinal juice (pH 6.8 phosphate buffer), 30 min", "format": "physicochemical", "conditions": "Medium pH 6.8 Phosphate Buffer", "method": "as §1, §2"}},
  "data": [
    {"smiles": "CCN(CC)C(=O)CC(C)(C(=O)/C=C/c1ccc(OC)c(OC)c1)C(=O)/C=C/c1ccc(OC)c(OC)c1", "note": "[API alone]", "values": [
      {"measurement": "AUC(0-inf)", "setting": "[1]", "value": 73.6, "unit": "ng·h/mL"},
      {"measurement": "Cmax", "setting": "[1]", "value": 25.3, "unit": "ng/mL"},
      {"measurement": "Dissolution within 30 min", "setting": "[2]", "value": 0.1, "unit": "%"},
      {"measurement": "Dissolution within 30 mins", "setting": "[3]", "value": 0.06, "unit": "%"}
    ]}
  ]
}
